Data on 1 molecule can be found in PubChem BioAssay (NCI).

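Values below derive from 48-hour exposures of cells grown in 96-well plates, with endpoints linearly interpolated between the two concentrations bracketing the appropriate inhibition level. TGI marks complete inhibition of growth.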

In the assay the test system is P388/ADR leukemia. The assay can be described thus: NCI tumour cell line growth inhibition, 48 h.

As for `CC[C@](C)(O)C(=O)O[C@H]1C(=O)O[C@@H]2C[C@H]3C(C)=CC(=O)[C@@H](O)[C@]3(C)[C@H]3[C@@]4(O)OC[C@]32[C@@H]1[C@@H](C)[C@H]4O`, the TGI was 9.5 µM.
